ChEMBL document CHEMBL6071155, “Discovery of selective Orai channel blockers bearing an indazole or a pyrazole scaffold” (Eur J Med Chem, 2024)
Calls of active or inactive are those of the source. The rule behind the calls is not given here.

How the values were obtained:
[1] = tested on: Jurkat T; assay: Inhibition of NFAT (unknown origin) activation transfected in human Jurkat T cells expressing firefly luciferase gene at 10 uM preincubated with compound for 30 mins followed by PMA/ionomysin addition and measured after 18 hrs by luminometer relative to control; type: cell-based; details: time 18.5 hrs
[2] = biological target: Transient receptor potential cation channel subfamily M member 4 (Homo sapiens) (UniProt Q8TD43); assay: Activation of GFP-tagged human TRPM4 transfected in HEK293 cells at 10 uM by patch clamp electrophysiology; type: cell-based; details: filed as opener
[3] = tested on: Jurkat; assay: Cytotoxicity against human Jurkat T cells assessed as cell killing at 30 uM incubated for 48 hrs by trypan blue exclusion method relative to control; type: toxicity, cell-based
[4] = tested on: Calcium release-activated calcium channel protein 1 (Homo sapiens), Q96D31 [G98S]; assay: Reversible inhibition of myc-tagged human Orai-1 G98S mutant expressed in HEK293 cells assessed as reduction in inward current at 10 uM measured upto 6 mins by patch clamp electrophysiology; type: cell-based
[5] = tested on: Calcium release-activated calcium channel protein 1 (Homo sapiens), Q96D31 [G98S]; assay: (§1) Inhibition of myc-tagged human orai-1 G98S mutant expressed in HEK293 cells assessed as decrease in inward current by patch clamp electrophysiology technique; type: cell-based; details: dose 1-30 µM
[6] = biological target: Calcium release-activated calcium channel protein 1 (Homo sapiens, UniProt Q96D31, G98S); assay: as §1; type: cell-based
[7] = tested on: Calcium release-activated calcium channel protein 1 (Homo sapiens), Q96D31 [G98S]; assay: Inhibition of myc-tagged human orai-1 G98S mutant expressed in HEK293 cells assessed as decrease in inward current at 30 uM by patch clamp electrophysiology technique relative to control; type: cell-based
[8] = biological target: Transient receptor potential cation channel subfamily M member 4 (Homo sapiens) (UniProt Q8TD43); assay: Activation of GFP-tagged human TRPM4 transfected in HEK293 cells at 30 uM by patch clamp electrophysiology; type: cell-based
[9] = biological target: Transient receptor potential cation channel subfamily M member 7 (Homo sapiens) (UniProt Q96QT4); assay: Activation of TRPM7 in human Jurkat T cells at 30 uM by patch clamp electrophysiology; type: cell-based
[10] = (§2) Inhibition of Store-operated calcium entry (SOCE) in phytohemagglutinin-stimulated human Jurkat T cells in presence of Ca2+ by fura-2 dye based calcium imaging analysis; type: functional, cell-based
[11] = tested on: Jurkat; assay: as §2; type: functional, cell-based
[12] = Inhibition of Store-operated calcium entry (SOCE) in phytohemagglutinin-stimulated human Jurkat T cells at 30 uM in presence of Ca2+ by fura-2 dye based calcium imaging analysis relative to control; type: functional
[13] = tested on: Jurkat; assay: Cytotoxicity against human Jurkat T cells assessed as decrease in cell viability at 30 uM incubated for 48 hrs by trypan blue exclusion method; type: toxicity, cell-based

Calcium release-activated calcium channel protein 1 (Homo sapiens), Q96D31 [G98S], sequence (Q96D31 whole entry G98S): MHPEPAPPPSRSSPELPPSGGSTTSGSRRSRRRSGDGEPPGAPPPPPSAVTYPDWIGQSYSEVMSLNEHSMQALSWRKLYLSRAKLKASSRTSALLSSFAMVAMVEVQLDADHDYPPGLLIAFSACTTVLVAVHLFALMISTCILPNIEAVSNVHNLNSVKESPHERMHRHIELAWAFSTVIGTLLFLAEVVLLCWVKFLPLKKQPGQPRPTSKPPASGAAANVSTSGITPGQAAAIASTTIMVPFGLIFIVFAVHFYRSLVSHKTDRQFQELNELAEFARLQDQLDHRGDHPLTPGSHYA
Transient receptor potential cation channel subfamily M member 4 (Homo sapiens), sequence (Q8TD43 whole entry): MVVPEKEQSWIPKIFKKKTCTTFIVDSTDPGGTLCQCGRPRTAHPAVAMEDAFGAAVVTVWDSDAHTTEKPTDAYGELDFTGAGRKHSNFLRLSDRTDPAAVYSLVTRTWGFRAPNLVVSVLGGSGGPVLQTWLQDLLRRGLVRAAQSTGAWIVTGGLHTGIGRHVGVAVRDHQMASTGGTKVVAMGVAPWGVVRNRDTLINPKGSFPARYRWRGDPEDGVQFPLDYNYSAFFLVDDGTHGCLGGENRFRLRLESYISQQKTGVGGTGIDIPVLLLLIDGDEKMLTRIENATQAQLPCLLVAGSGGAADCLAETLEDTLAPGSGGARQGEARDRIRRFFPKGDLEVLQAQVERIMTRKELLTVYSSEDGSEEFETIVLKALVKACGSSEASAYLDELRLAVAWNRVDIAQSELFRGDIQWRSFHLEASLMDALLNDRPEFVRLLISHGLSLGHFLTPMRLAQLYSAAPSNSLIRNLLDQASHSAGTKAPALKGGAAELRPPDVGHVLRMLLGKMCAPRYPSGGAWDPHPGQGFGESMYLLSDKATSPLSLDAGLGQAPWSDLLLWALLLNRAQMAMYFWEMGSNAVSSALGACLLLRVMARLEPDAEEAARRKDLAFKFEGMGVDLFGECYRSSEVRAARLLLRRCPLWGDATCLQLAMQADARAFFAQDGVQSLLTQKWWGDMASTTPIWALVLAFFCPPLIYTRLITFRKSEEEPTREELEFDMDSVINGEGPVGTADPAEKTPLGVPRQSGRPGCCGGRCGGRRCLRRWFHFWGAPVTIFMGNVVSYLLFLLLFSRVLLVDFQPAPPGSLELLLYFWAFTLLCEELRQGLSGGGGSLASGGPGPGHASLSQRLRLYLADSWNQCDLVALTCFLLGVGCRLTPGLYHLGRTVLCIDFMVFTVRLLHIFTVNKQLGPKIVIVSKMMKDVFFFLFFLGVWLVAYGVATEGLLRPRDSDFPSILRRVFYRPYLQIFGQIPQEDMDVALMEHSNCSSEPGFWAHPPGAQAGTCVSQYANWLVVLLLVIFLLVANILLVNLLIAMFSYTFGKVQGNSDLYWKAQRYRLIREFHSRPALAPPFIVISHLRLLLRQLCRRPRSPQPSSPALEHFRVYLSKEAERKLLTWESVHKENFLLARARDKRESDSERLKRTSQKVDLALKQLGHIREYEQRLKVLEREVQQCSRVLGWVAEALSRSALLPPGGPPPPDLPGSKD
Transient receptor potential cation channel subfamily M member 7 (Homo sapiens), sequence (Q96QT4 whole entry): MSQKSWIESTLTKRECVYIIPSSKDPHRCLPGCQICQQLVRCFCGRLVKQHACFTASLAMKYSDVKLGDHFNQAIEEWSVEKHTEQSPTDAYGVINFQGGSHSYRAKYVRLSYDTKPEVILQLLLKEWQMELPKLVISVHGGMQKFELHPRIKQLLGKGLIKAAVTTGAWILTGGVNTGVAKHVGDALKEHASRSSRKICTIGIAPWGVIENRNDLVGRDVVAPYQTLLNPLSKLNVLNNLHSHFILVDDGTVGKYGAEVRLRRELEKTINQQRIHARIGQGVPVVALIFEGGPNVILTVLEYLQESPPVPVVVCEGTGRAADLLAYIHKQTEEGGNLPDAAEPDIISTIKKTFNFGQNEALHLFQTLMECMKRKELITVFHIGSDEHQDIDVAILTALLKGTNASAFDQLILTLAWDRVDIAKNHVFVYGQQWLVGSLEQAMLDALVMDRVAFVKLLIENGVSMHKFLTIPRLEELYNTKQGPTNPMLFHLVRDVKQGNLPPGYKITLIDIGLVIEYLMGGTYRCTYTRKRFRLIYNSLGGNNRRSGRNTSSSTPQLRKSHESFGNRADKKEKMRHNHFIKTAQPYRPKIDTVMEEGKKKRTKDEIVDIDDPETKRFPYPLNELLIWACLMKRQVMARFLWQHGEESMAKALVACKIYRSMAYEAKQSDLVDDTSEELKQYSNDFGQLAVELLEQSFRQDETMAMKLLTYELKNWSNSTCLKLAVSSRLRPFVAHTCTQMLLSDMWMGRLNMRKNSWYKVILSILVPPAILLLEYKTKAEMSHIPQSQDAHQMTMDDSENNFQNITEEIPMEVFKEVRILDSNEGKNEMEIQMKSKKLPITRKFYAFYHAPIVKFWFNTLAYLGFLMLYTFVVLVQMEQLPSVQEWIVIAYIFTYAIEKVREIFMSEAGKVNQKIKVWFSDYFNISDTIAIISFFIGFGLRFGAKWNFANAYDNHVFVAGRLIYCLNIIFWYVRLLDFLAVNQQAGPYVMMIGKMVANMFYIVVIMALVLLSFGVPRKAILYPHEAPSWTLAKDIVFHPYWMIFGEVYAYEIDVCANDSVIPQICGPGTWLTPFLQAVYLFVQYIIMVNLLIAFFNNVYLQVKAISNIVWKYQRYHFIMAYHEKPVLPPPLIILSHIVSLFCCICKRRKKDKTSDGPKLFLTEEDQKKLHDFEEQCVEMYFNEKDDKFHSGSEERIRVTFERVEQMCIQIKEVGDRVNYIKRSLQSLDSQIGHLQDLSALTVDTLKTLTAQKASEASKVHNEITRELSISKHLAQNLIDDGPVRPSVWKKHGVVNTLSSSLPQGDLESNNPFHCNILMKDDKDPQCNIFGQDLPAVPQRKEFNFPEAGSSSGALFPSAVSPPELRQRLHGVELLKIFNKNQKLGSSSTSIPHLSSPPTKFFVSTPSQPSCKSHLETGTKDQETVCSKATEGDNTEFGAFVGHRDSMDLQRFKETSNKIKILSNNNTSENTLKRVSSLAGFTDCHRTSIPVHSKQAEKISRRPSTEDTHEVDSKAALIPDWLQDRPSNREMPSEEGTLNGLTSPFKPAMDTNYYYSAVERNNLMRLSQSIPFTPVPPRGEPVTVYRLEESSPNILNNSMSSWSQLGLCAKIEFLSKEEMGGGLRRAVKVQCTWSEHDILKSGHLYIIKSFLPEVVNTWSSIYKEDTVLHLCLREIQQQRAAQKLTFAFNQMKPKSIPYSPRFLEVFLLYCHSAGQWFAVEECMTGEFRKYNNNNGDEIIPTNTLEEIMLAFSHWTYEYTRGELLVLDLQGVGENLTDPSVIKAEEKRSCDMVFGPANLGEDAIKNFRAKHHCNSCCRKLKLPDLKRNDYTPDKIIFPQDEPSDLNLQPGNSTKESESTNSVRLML
Calcium release-activated calcium channel protein 1, sequence (Q96D31 whole entry G98S): as the sequence (Q96D31 whole entry G98S) above

Row | Structure (SMILES) | inhibition [1] | other results
1 | O=C(Nc1ccncc1F)c1nn(CC2CC2)c2cc(Cl)ccc12 | 51.9% | 
2 | O=C(Nc1ccncc1F)c1nn(CC2CC2)c2cc(F)ccc12 | 96.1% | 
3 | O=C(Nc1c(F)cccc1F)c1nn(CC2CC2)c2c1CCCC2 | 53.9% | 
4 | Cc1cnccc1NC(=O)c1nn(CC2CCC2)c2c1CCCC2 | 92.6% | 
5 | O=C(Nc1ccncc1F)c1nn(CC2CCC2)c2c1CCCC2 | 92.8% | 
6 | O=C(Nc1ccncc1F)c1nn(CC2CC2)c2ccc(F)cc12 | 77.3% | 
7 | O=C(Nc1ccncc1F)c1nn(CC2CC2)c2ccc(Br)cc12 | 58.6% | 
8 | Cc1cnccc1NC(=O)c1nn(CC2CCC2)c2ccccc12 | 92.4% | 
9 | Cc1cnccc1NC(=O)c1ccn(CC2CC2)n1 | 61.3% | 
10 | Cc1nnsc1C(=O)Nc1ccc(-n2nc(C(F)(F)F)cc2C(F)(F)F)cc1 |  | Activity [2]: Active; Activity [3]: ~ 80%
11 | Cc1cnccc1NC(=O)c1nn(CC2CC2)c2c1CCC2 | 55.5% | 
12 | O=C(Nc1ccncc1F)c1nn(CC2CC2)c2c1CCCC2 | 87.3% | 
13 | O=C(Nc1ccncc1F)c1nn(CC2CCC2)c2ccccc12 | 80.5% | 
14 | O=C(Nc1ccncc1F)c1nn(CC2CC2)c2c(F)cccc12 | 48.5% | 
15 | O=C(Nc1ccncc1F)c1nn(CC2CC2)c2c1CCC2 | 63.6% | 
16 | O=C(Nc1ccncc1F)c1nn(C(=O)C2CC2)c2ccccc12 | 76.8% | 
17 | O=C(Nc1ccncc1F)c1ccn(CC2CC2)n1 | 60.2% | 
18 | O=C(Nc1ccncc1F)c1nn(CC2CC2)c2ncccc12 | 64.6% | inhibition [4]: Active
19 | Cc1cnccc1NC(=O)c1nn(CC2CC2)c2c1CCCC2 | 88.7% | 
20 | O=C(Nc1ccncc1F)c1nn(CC2CCCC2)c2ccccc12 | 95.4% | 
21 | O=C(Nc1ccncc1F)c1nn(CC2CCCCC2)c2ccccc12 | 88.4% | 
22 | Cc1cnccc1NC(=O)c1nn(CC2CC2)c2ccccc12 | 86.9% | 
23 | O=C(Nc1c(F)cccc1F)c1ccn(CC2CC2)n1 | inactive | 
24 | Cc1ccc2c(c1)c(C(=O)Nc1ccncc1F)nn2CC1CC1 | 81.9% | 
25 | O=C(Nc1ccncc1F)c1nn(CC2CC2)c2ccccc12 | 97.9% | inhibition [4]: Active; inhibition [5]: Dose-Dependent Effect; IC50 [6]: 4.9 µM; inhibition [7]: 100%; Activity [8]: inactive; Activity [9]: inactive; IC50 [10]: 10 µM; inhibition [11]: Dose-Dependent Effect; inhibition at 30 µM [12]: 100%; Activity [13]: Non-Toxic
